# Reference: article PMC8550792, “Evolution of kinase polypharmacology across HSP90 drug discovery” (Cell Chemical Biology, 2021)
# What was measured:
# Test in all cases: biochemical
# Format in all cases: biochemical
# [1] = molecular target: T1, 382 unique human kinases (Homo sapiens, UniProt Q12866); details: c-MER, 10 uM; for remaining activity at 10 µM: read-out: % Enzyme Activity (relative to DMSO controls)
# T1 construct: purchased Reaction Biology (HotSpot contract assay)
# T1 sequence (Q12866 21-999): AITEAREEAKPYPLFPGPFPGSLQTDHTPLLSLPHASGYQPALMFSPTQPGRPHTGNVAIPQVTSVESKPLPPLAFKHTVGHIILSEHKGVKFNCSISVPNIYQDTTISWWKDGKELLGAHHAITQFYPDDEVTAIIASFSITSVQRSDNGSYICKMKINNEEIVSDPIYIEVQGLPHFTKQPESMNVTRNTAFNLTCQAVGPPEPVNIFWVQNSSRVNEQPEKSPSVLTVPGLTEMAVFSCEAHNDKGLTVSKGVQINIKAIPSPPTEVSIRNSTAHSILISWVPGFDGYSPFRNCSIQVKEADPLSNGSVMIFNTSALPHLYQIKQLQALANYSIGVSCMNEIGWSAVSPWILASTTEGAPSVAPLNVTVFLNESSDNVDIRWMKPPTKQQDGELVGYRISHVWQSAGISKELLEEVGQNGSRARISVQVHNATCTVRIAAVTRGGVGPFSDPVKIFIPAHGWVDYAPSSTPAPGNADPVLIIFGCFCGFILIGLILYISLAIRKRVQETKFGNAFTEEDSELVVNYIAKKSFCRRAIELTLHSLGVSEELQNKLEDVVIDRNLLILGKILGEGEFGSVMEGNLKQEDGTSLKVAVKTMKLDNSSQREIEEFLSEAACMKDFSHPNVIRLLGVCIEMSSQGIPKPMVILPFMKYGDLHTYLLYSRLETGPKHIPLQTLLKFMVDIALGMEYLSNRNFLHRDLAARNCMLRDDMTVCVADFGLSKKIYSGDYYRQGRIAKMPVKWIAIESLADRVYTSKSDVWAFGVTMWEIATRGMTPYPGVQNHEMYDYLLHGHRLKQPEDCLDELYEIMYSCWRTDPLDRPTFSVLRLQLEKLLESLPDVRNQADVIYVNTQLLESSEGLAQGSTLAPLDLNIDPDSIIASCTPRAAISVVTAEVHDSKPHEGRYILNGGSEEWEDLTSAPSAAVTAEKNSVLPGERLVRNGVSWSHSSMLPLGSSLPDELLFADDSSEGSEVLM
# [2] = molecular target: T2, 382 unique human kinases (Homo sapiens, UniProt Q9UKI8); details: TLK1, 10 uM; for remaining activity at 10 µM: read-out: % Enzyme Activity (relative to DMSO controls)
# T2 construct: purchased Reaction Biology (HotSpot contract assay)
# T2 sequence (Q9UKI8 1-766): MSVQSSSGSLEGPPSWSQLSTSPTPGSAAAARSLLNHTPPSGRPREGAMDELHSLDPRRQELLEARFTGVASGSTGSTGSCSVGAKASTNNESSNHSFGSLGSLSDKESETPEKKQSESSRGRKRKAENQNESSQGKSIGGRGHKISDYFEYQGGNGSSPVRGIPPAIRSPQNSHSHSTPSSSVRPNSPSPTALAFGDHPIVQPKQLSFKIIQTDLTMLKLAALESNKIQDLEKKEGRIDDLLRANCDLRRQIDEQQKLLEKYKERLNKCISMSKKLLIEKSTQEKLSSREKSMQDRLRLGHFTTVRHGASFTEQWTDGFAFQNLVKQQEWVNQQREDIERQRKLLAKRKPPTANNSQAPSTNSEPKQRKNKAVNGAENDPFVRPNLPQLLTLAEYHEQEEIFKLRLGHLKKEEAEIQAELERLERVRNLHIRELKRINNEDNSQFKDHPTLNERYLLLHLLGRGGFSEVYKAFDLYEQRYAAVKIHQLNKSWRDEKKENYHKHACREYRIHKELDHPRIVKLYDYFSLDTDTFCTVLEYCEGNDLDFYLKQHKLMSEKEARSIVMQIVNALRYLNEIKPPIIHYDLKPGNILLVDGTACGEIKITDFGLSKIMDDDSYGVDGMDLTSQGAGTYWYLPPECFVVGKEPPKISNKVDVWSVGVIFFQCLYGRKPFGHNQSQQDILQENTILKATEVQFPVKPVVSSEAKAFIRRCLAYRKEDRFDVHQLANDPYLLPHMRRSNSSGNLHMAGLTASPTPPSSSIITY
# [3] = molecular target: T3, 382 unique human kinases (Homo sapiens, UniProt Q9UM73, L1196M); details: ALK (L1196M), 10 uM; for remaining activity at 10 µM: read-out: % Enzyme Activity (relative to DMSO controls)
# T3 construct: purchased Reaction Biology (HotSpot contract assay)
# [4] = molecular target: T4, 382 unique human kinases (Homo sapiens, UniProt Q9UPZ9); details: kinase LCK2/ICK, compound 10 uM; for remaining activity at 10 µM: read-out: % Enzyme Activity (relative to DMSO controls)
# T4 construct: purchased Reaction Biology (HotSpot contract assay)
# T4 sequence (Q9UPZ9 1-632): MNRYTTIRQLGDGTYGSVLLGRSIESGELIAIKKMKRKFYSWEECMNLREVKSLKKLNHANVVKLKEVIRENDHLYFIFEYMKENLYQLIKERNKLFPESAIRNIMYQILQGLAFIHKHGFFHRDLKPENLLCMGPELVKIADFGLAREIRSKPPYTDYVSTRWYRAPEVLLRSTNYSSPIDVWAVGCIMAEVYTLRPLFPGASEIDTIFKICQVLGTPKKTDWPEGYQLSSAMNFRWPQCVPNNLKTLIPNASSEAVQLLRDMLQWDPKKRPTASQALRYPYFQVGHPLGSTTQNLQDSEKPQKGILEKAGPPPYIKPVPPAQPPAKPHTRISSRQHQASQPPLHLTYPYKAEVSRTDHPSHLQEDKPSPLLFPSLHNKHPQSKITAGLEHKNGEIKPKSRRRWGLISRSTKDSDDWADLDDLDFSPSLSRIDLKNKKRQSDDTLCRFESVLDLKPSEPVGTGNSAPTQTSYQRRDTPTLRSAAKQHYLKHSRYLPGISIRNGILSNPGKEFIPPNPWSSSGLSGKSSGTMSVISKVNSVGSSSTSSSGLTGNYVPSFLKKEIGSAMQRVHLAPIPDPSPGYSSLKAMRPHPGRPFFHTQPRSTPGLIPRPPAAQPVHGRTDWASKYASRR
# [5] = molecular target: T5, 382 unique human kinases (Homo sapiens, UniProt P08631); details: HCK, [ATP] 30 µM
# T5 construct: purchased Reaction Biology (HotSpot contract assay)
# [6] = molecular target: T6, 382 unique human kinases (Homo sapiens, UniProt P16234, D842V); details: PDGFRa (D842V), [ATP] 1 µM, compound 10 uM; for remaining activity at 10 µM: read-out: % Enzyme Activity (relative to DMSO controls)
# T6 construct: purchased Reaction Biology (HotSpot contract assay)
# [7] = molecular target: T7, 382 unique human kinases (Homo sapiens, UniProt Q5S007, G2019S); details: LRRK2 (G2019S), [ATP] 50 µM, compound 10 uM; for remaining activity at 10 µM: read-out: % Enzyme Activity (relative to DMSO controls)
# T7 construct: purchased Reaction Biology (HotSpot contract assay)
# [8] = molecular target: T8, 382 unique human kinases (Homo sapiens, UniProt P08581, T992I); details: c-MET (T992I), 10 uM; for remaining activity at 10 µM: read-out: % Enzyme Activity (relative to DMSO controls)
# T8 construct: purchased Reaction Biology (HotSpot contract assay)
# [9] = compound 10 uM, read-out: % Enzyme Activity (relative to DMSO controls)
# T6 sequence (P16234 24-1089 D842V): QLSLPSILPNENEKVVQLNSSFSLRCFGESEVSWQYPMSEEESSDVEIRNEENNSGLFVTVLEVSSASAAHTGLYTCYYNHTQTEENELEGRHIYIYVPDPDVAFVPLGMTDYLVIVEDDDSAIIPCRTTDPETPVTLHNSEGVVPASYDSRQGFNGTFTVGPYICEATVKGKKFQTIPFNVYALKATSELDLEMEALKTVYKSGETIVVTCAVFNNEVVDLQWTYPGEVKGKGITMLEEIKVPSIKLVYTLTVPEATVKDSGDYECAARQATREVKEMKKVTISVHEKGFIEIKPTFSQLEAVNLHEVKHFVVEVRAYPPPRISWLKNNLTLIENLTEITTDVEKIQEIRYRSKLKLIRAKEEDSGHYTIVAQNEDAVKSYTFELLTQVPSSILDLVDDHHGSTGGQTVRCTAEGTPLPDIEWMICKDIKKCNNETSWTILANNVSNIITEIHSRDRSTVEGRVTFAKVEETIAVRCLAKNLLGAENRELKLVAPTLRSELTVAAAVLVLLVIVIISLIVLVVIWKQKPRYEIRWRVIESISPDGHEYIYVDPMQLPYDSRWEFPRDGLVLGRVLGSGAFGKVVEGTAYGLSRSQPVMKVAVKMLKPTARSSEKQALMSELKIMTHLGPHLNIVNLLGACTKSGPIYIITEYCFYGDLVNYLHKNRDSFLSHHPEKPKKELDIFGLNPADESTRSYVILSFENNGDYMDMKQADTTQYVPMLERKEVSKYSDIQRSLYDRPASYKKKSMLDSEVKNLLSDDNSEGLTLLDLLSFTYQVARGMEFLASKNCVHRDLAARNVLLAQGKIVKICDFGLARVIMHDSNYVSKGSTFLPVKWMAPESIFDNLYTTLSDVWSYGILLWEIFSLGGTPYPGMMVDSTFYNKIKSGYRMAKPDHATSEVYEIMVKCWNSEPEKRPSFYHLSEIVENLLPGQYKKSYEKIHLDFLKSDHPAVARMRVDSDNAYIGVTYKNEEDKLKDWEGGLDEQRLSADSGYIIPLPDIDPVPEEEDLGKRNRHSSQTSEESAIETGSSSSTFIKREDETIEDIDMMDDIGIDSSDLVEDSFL
# T3 sequence (Q9UM73 19-1620 L1196M): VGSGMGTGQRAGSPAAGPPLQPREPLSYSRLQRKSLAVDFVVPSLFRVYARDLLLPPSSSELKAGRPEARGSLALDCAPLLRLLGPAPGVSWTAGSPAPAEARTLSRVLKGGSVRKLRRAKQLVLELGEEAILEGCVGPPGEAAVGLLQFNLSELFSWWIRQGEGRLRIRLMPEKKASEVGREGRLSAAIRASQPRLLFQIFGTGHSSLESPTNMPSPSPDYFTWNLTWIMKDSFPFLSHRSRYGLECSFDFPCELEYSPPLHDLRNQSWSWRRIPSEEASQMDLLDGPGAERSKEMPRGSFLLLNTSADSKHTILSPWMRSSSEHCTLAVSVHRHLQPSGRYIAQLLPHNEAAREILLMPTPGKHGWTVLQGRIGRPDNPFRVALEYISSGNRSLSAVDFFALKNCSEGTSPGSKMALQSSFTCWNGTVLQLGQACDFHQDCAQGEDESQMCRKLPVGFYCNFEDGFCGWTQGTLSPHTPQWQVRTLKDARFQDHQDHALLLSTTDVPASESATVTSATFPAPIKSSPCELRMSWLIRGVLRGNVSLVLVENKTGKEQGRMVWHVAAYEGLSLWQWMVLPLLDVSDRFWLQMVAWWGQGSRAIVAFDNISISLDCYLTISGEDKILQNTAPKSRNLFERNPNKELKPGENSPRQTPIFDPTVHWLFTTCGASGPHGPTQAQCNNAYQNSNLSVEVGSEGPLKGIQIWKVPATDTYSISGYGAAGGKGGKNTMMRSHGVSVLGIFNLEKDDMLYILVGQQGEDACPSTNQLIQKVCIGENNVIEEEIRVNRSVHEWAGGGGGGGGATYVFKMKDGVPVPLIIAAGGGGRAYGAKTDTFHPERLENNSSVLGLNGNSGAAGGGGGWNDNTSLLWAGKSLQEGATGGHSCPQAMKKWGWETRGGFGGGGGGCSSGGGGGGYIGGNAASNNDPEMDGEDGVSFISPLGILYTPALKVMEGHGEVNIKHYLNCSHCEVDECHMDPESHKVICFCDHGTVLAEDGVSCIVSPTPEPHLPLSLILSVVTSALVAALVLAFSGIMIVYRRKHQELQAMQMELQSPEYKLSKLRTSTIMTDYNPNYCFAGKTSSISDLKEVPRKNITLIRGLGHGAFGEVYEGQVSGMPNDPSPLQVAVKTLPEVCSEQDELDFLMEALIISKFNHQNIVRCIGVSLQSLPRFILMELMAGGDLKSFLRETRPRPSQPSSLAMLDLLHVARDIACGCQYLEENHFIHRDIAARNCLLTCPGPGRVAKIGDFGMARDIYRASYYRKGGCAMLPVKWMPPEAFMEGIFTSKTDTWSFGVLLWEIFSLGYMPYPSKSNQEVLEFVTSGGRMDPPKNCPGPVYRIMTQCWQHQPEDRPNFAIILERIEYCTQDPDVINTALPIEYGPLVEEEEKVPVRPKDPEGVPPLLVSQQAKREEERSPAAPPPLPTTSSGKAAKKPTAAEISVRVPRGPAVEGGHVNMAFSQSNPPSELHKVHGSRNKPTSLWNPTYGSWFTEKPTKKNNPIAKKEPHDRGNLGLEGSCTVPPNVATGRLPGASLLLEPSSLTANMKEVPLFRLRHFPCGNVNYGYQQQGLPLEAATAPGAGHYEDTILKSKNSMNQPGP
# T5 sequence (P08631 whole entry): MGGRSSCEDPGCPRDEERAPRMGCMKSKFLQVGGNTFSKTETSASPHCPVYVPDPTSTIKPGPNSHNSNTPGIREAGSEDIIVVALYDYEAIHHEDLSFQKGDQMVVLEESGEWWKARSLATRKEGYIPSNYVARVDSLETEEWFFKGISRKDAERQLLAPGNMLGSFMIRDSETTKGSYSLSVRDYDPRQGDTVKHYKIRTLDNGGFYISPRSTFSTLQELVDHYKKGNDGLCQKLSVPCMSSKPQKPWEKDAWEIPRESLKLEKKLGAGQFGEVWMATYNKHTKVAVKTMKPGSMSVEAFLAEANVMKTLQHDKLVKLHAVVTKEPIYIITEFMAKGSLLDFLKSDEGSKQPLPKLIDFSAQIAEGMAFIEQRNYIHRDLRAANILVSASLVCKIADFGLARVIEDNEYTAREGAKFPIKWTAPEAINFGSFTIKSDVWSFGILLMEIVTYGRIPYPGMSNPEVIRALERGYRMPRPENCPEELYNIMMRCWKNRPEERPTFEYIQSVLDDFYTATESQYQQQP
SMILES,remaining activity at 10 µM [1] [%],remaining activity at 10 µM [2] [%],remaining activity at 10 µM [3] [%],remaining activity at 10 µM [4] [%],% Enzyme Activity (relative to DMSO controls) ([5]; compound 10 uM) [%],"remaining activity at 10 µM [5, 9] [%]",% Enzyme Activity (relative to DMSO controls) [6] [%],remaining activity at 10 µM [6] [%],% Enzyme Activity (relative to DMSO controls) [7] [%],remaining activity at 10 µM [7] [%],% Enzyme Activity (relative to DMSO controls) [8] [%],remaining activity at 10 µM [8] [%],% Enzyme Activity (relative to DMSO controls) [1] [%],% Enzyme Activity (relative to DMSO controls) [2] [%],% Enzyme Activity (relative to DMSO controls) [3] [%],% Enzyme Activity (relative to DMSO controls) [4] [%],"remaining activity at 1 µM ([5]; compound 1 uM, read-out: % Enzyme Activity (relative to DMSO controls)) [%]"
CC(C)c1cc(-c2n[nH]c(=O)n2-c2ccc3c(ccn3C)c2)c(O)cc1O [Ganetespib (STA9090)],63.5,65.8,70.2,90.4,,,,,,,,,,,,,
CCNC(=O)c1noc(-c2cc(C(C)C)c(O)cc2O)c1-c1ccc(CN2CCOCC2)cc1 [Luminespib],,,,,95.21,97.2,50.60,59.9,91.80,93.5,90.73,91.3,,,,,
CCNC(=O)c1noc(-c2cc(C(C)C)c(O)cc2O)c1-c1ccc(CN2CCOCC2)cc1 [Luminespib (AUY-922)],97.7,86.2,100,113,,,,,,,,,93.85,84.15,98.66,109.49,
CC(C)c1cc(-c2n[nH]c(=O)n2-c2ccc3c(ccn3C)c2)c(O)cc1O [Ganetespib],,,,,,14.5,,76.2,,28.6,,95.6,,,,,77.7
